{"source": "patent US8637266B2", "about": "“Anti bone-loss and anti attachment-loss effects of an oral composition” (Colgate-Palmolive Company, priority 2009, dated 2014)", "key": {"[1]": {"system": "MMP-9", "assay": "TNFα-induced MMP-9 production of U937 monocytes (ELISA of conditioned media)", "format": "cell-based, Human", "conditions": "for MMP-9 production, Average: U937 cells, 24 hours, conditioned media ELISA", "experimental": "U937 cells and RPMI 1640 culture medium were obtained from ATCC. Human MMP-9 ELISA Kit (QUANTIKINE) was obtained from R&D Systems. Fetal Bovine Serum (FBS) was obtained from VWR, and the penicillin-streptomycin solution and Tumor Necrosis Factor α (TNFα) were obtained from Sigma.\nHuman leukemia U937 monocyte lymphoma cells were cultured in RPMI 1640 medium supplemented with 10% FBS and 1% Penicillin-Streptomycin solution. Cells were incubated at 37° C. in a humidified atmosphere containing 5% CO2 and 95% air. Before treatment, cells were transferred into RPMI containing 1% FBS for overnight. Cells were plated on a 48 well plate. Cell culture medium included either TNFα (250 ng/mL), Triclosan(1 ppm), or both agents together or no agent (control). Cells were incubated after treatment for 24 hours. Conditioned media were collected and store at −80° C. until analysis. Samples of conditioned media were subjected to enzyme-linked immunosorbent assays (ELISA) for MMP-9, according to commercial ELISA protocol (FIG. 1)."}, "[2]": {"system": "MMP-13", "assay": "PTH-induced MMP-13 expression in UMR 106-01 osteoblast cells (real time quantitative RT-PCR)", "format": "cell-based, Rat", "experimental": "Parathyroid hormone (rat PTH 1-34) was purchased from Sigma. UMR 106-01 cells were cultured in Eagle's minimal essential medium (EMEM) supplemented with 25 mM Hepes pH 7.4, 1% nonessential amino acids, 100 units/rill penicillin, 100 μg/ml streptomycin. 5% fetal bovine serum. Real Time Quantitative RT-PCR was conducted according to the following method: UMR 106-01 cells were seeded in 12-well plates and cultured for 2-3 days in cell culture media. When cells were confluent, cell culture media was exchanged with 1% fetal bovine serum for overnight for cell starvation. Cells were pre-incubated with triclosan or a triclosan-containing dentifrice (see. e.g., U.S. Pat. Nos. 4,894,220, 5,032,386, and related patents) for 15 min and then incubated with PTH (10^−8 M) for 4 hours.\nTotal RNA was isolated from UMR 106-01 cells stimulated with or without PTH with TRIzol reagent. Total RNA (0.1 μg) was reverse-transcribed to cDNA using the Invitrogen SUPERSCRIPT kit according to the manufacturer's instructions. All cDNAs were amplified by adding 2.5 μl of cDNA to the PCR mixture (22.5 μl) containing each primer (0.2 μM) and 12.5 μl of the Platinum SYBR Green qPCR SuperMix UDG (Invitrogen). The reactions were preincubated at 50° C. for 2 minutes to decontaminate dU-containing DNA by UDG, then at 95° C. for 2 minutes to inactivate UDG and activate Taq. The PCR program continued 49 cycles of denaturation at 95° C. for 15 seconds, annealing and elongation of the primers at 60° C. for 30 seconds. Relative quantification of gene expression was determined by using the 2-delta delta CT method where fold changes in gene expression are relative to control samples. All samples were normalized to β-actin.\nAll results were expressed as means±standard error (S.E.) of triplicate measurements with all experiments being repeated at least three times. Statistical analyses were carried out using the Student's t test."}, "[3]": {"conditions": "with PEG 600, weight ratio of 25 triclosan:1 PEG 600, versus absence of polyethylene glycol; cited from earlier work"}}}
{"molecule": "Oc1cc(Cl)ccc1Oc1ccc(Cl)cc1Cl", "note": "[Triclosan, 2,4,4′-trichloro-2′-hydroxydiphenyl ether]", "values": [{"measurement": "effect on MMP-9 level in TNFα stimulated U937 cells", "setting": "[1]; Triclosan at 1 ppm", "result": "significantly reduced"}, {"measurement": "MMP-9 production, Average", "setting": "[1]; TNFα 250 ng/mL + Triclosan 1 ppm", "result": 0.155, "unit": "ng/mL"}, {"measurement": "MMP-13 expression, Average (fold change relative to control, normalized to β-actin)", "setting": "[2]; Triclosan 1 ppm + PTH 10^−8 M, 15 min pre-incubation, 4 hours", "result": 35.38}, {"measurement": "MMP-13 expression, Average (fold change relative to control, normalized to β-actin)", "setting": "[2]; Triclosan 1 ppm, without PTH", "result": 0.4166}, {"measurement": "MMP-13 expression, Average (fold change relative to control, normalized to β-actin)", "setting": "[2]; Triclosan 4 ppm + PTH 10^−8 M, 15 min pre-incubation, 4 hours", "result": 10.56}, {"measurement": "MMP-13 expression, Average (fold change relative to control, normalized to β-actin)", "setting": "[2]; Triclosan 4 ppm, without PTH", "result": 1.424}, {"measurement": "MMP-13 expression, Average (fold change relative to control, normalized to β-actin)", "setting": "[2]; Triclosan 10 ppm + PTH 10^−8 M, 15 min pre-incubation, 4 hours", "result": 3.012}, {"measurement": "MMP-13 expression, Average (fold change relative to control, normalized to β-actin)", "setting": "[2]; Triclosan 10 ppm, without PTH", "result": 1.518}, {"measurement": "effect on MMP-13 expression in PTH stimulated UMR cells", "setting": "[2]; Triclosan at 10 ppm, 4 ppm and 1 ppm", "result": "significantly reduced"}, {"measurement": "factor by which antibacterial activity is reduced", "setting": "[3]", "result": "10-20"}]}
{"molecule": "TNFα", "values": [{"measurement": "MMP-9 production, Average", "setting": "[1]; TNFα 250 ng/mL alone", "result": 0.275, "unit": "ng/mL"}]}
